Results taken from ChEMBL document CHEMBL1123774, “Peptide quantitative structure-activity relationships, a multivariate approach” (J Med Chem, 1987).
Peptide text beside a SMILES is read from it.

experiment: Bradykinin potentiating activity was determined as the activity index by PLS model

Structure (SMILES)	Log RAI
C[C@H](N)C(=O)N[C@@H](C)C(=O)N[C@@H](C)C(=O)N[C@@H](C)C(=O)N[C@@H](C)C(=O)O	-0.1
C[C@H](N)C(=O)N[C@@H](C)C(=O)N[C@@H](Cc1ccc(O)cc1)C(=O)N[C@@H](C)C(=O)N[C@@H](C)C(=O)O	0.46
C[C@H](N)C(=O)N[C@@H](C)C(=O)N[C@@H](Cc1c[nH]c2ccccc12)C(=O)N[C@@H](C)C(=O)N[C@@H](C)C(=O)O (H-AAWAA-OH)	0.75
C[C@H](NC(=O)[C@H](Cc1c[nH]c2ccccc12)NC(=O)[C@H](CCCCN)NC(=O)[C@@H](N)CCC(=O)O)C(=O)N1CCC[C@H]1C(=O)O (H-EKWAP-OH)	1.3
C[C@H](NC(=O)[C@H](C)NC(=O)[C@H](CCC(=O)O)NC(=O)[C@@H](N)Cc1ccccc1)C(=O)N[C@@H](CCCCN)C(=O)O (H-FEAAK-OH)	0.3
NC(N)=NCCC[C@H](NC(=O)[C@H](Cc1ccccc1)NC(=O)[C@@H]1CCCN1C(=O)[C@H](CO)NC(=O)[C@@H](N)Cc1ccccc1)C(=O)O (H-FSPFR-OH)	0.64
C[C@H](NC(=O)[C@H](C)NC(=O)[C@H](CCC(=O)O)NC(=O)CN)C(=O)N[C@@H](CCCCN)C(=O)O (H-GEAAK-OH)	-0.52
CC(C)C[C@H](N)C(=O)N[C@@H](CCC(=O)O)C(=O)N[C@@H](C)C(=O)N[C@@H](C)C(=O)N[C@@H](CCCCN)C(=O)O (H-LEAAK-OH)	0.4
O=C(CNC(=O)[C@@H]1CCCN1)N[C@@H](Cc1ccccc1)C(=O)N[C@@H](CO)C(=O)N1CCC[C@H]1C(=O)O (H-PGFSP-OH)	0.9
C[C@H](NC(=O)[C@H](Cc1c[nH]c2ccccc12)NC(=O)[C@H](CCCCN)NC(=O)[C@@H](N)CCCN=C(N)N)C(=O)N1CCC[C@H]1C(=O)O (H-RKWAP-OH)	1.98
CC(C)[C@H](N)C(=O)N[C@@H](C)C(=O)N[C@@H](C)C(=O)N[C@@H](C)C(=O)N[C@@H](CCCCN)C(=O)O (H-VAAAK-OH)	-0.1
CC(C)[C@H](N)C(=O)N[C@@H](C)C(=O)N[C@@H](C)C(=O)N[C@@H](Cc1c[nH]c2ccccc12)C(=O)N[C@@H](CCCCN)C(=O)O (H-VAAWK-OH)	0.23
CC(C)[C@H](N)C(=O)N[C@@H](C)C(=O)N[C@@H](Cc1c[nH]c2ccccc12)C(=O)N[C@@H](C)C(=O)N[C@@H](C)C(=O)O (H-VAWAA-OH)	1.43
CC(C)[C@H](N)C(=O)N[C@@H](C)C(=O)N[C@@H](Cc1c[nH]c2ccccc12)C(=O)N[C@@H](C)C(=O)N[C@@H](CCCCN)C(=O)O (H-VAWAK-OH)	1.45
CC(C)[C@H](N)C(=O)N[C@@H](CCC(=O)O)C(=O)N[C@@H](C)C(=O)N[C@@H](C)C(=O)N[C@@H](CCCCN)C(=O)O (H-VEAAK-OH)	0.51
CC(C)[C@H](N)C(=O)N[C@@H](CCC(=O)O)C(=O)N[C@@H](C)C(=O)N[C@@H](C)C(=O)N1CCC[C@H]1C(=O)O (H-VEAAP-OH)	0.18
CC(C)[C@H](N)C(=O)N[C@@H](CCC(=O)O)C(=O)N[C@@H](C)C(=O)N[C@@H](CO)C(=O)N[C@@H](CCCCN)C(=O)O (H-VEASK-OH)	0.2
CC(C)[C@H](N)C(=O)N[C@@H](CCC(=O)O)C(=O)N[C@@H](Cc1ccccc1)C(=O)N[C@@H](C)C(=O)N[C@@H](CCCCN)C(=O)O (H-VEFAK-OH)	1.57
CC(C)[C@H](N)C(=O)N[C@@H](CCC(=O)O)C(=O)NCC(=O)NCC(=O)N[C@@H](CCCCN)C(=O)O (H-VEGGK-OH)	-1
CC(C)[C@H](N)C(=O)N[C@@H](CCC(=O)O)C(=O)N[C@@H](Cc1c[nH]cn1)C(=O)N[C@@H](C)C(=O)N[C@@H](CCCCN)C(=O)O (H-VEHAK-OH)	1.53
CC(C)C[C@H](NC(=O)[C@H](CCC(=O)O)NC(=O)[C@@H](N)C(C)C)C(=O)N[C@@H](C)C(=O)N[C@@H](CCCCN)C(=O)O (H-VELAK-OH)	0.59
CC(C)[C@H](N)C(=O)N[C@@H](CCC(=O)O)C(=O)N[C@@H](CO)C(=O)N[C@@H](C)C(=O)N[C@@H](CCCCN)C(=O)O (H-VESAK-OH)	0.28
CC(C)[C@H](N)C(=O)N[C@@H](CCC(=O)O)C(=O)N[C@@H](CO)C(=O)N[C@@H](CO)C(=O)N[C@@H](CCCCN)C(=O)O (H-VESSK-OH)	0
CC(C)[C@H](N)C(=O)N[C@@H](CCC(=O)O)C(=O)N[C@@H](Cc1c[nH]c2ccccc12)C(=O)N[C@@H](C)C(=O)N[C@@H](CCCCN)C(=O)O (H-VEWAK-OH)	2.73
CC(C)[C@H](N)C(=O)N[C@@H](CCC(=O)O)C(=O)N[C@@H](Cc1c[nH]c2ccccc12)C(=O)N[C@H](C(=O)N[C@@H](CCCCN)C(=O)O)C(C)C (H-VEWVK-OH)	1.71
CC(C)[C@H](N)C(=O)N[C@@H](CCCCN)C(=O)N[C@@H](C)C(=O)N[C@@H](C)C(=O)N[C@@H](CCCCN)C(=O)O (H-VKAAK-OH)	0.11
CC(C)[C@H](N)C(=O)N[C@@H](CCCCN)C(=O)N[C@@H](Cc1c[nH]c2ccccc12)C(=O)N[C@@H](C)C(=O)N[C@@H](C)C(=O)O (H-VKWAA-OH)	1.71
CC(C)[C@H](N)C(=O)N[C@@H](CCCCN)C(=O)N[C@@H](Cc1c[nH]c2ccccc12)C(=O)N[C@@H](C)C(=O)N1CCC[C@H]1C(=O)O (H-VKWAP-OH)	2.35
CC(C)[C@H](N)C(=O)N[C@@H](Cc1c[nH]c2ccccc12)C(=O)N[C@@H](C)C(=O)N[C@@H](C)C(=O)N[C@@H](CCCCN)C(=O)O (H-VWAAK-OH)	0.04
